Like-named read-outs stand apart in the source and are kept apart here.
How the values were obtained:
[1] = in vivo; details: for selectivity ratio: LD50 mouse i.v. / antiemetic ED50 dog s.c., x 1/1000, Table I, read-out: Safety margin (LD50/ED50); for LD50 at 168 h: iv, mouse, i.v. tail injection, mortality after one week, Table I, read-out: Toxicity LD50
Description: Each of the test samples was injected intravenously to a mouse in the tail portion at a rate of 0.1 ml./10 g./10 sec. by an up and down method. The mortality rate after one week was checked and from the relation between the amount of the sample used and the mortality rate, LD50 (mg/kg) was determined.

[2] = test system: emesis induced by apomorphine; assay: Antiemetic activity, oral (apomorphine-induced emesis); assay type: in vivo, dog; details: for ED50: Canis lupus familiaris, po, dog, p.o. in capsules with lactose, 90 min before apomorphine 0.1 mg/kg s.c., Table II; for Activity efficiency (ED50 p.o/ED50 s.c): antiemetic ED50, dog
Description: 2. Oral administration: Each of the test samples was mixed with lactose and was filled in capsules. The capsules were orally administered to a dog, 0.1 mg./kg. of apomorphine was administered to the dog by subcutaneous injection after 90 minutes, and then the frequency of emesis was measured within 30 minutes after the apomorphine injection. (Each dog was used only once.) The drugs were evaluated by ED50 values in the same way as described in Experiment I-a.

[3] = Cataleptic activity (Courvoisier's method); details: in vivo, sc, rat
Description: According to the Courvoisier's method (Courvoisier, S, Durcot, R. & Jolou, L, (1957), Psychotropic drugs (Ed. Garattini, S and Ghetti, V.), p. 373, Else vier Publishing Company, Amsterdam, London, New York, Princeton), the four limbs of a rat were placed on four rubber stoppers and when the rat could maintain the same pose for 30 seconds, the rat was determined to be positive. The catalepsy was measured every 30 minutes till 240 minutes after the subcutaneous administration of the sample. The sample that produced a positive response in rat even once was determined to be positive in the cataleptic test. From the relation between the positive response and the amount of the sample, ED50 (mg/kg) was determined.

[4] = test system: emesis induced by apomorphine; assay: Antiemetic activity, subcutaneous (apomorphine-induced emesis); assay type: in vivo, dog; details: for ED50: Canis lupus familiaris, sc, read-out: Antiemetic activity ED50 (s.c); for Antiemetic activity ED50 (s.c): Table II
Description: Each of the test samples was administered to a dog by subcutaneous injection; then 0.1 mg./kg. of apomorphine was administered to a dog by subcutaneous injection after 30 minutes, and the frequency of emesis within 30 minutes after the injection was measured. (Each dog was used only once). From the frequency of emesis, the inhibition rate was calculated and from the relation between the amount of the sample used and the inhibition rate, ED50 (μg/kg.) was determined. Drug activity was assessed by ED50 values.
1. Subcutaneous administration:
Same as Experiment (I-a).

[5] = test system: spontaneous motility of the stomach; assay: Effect of stimulating gastric motility (ballon method); assay type: in vivo; details: anesthetized dog, i.v.; Table III
Description: After anesthetizing a dog which had fasted overnight by intravenously injecting 30 mg./kg. of pentobarbital, each of the test samples was injected intravenously and then the spontaneous motility of the stomach was recorded by means of a polygraph (RM-150, made by Nihon Koden K. K.) according to the ballon method (Jap. J. Smooth Muscle Res., 2, 15(1966)). In addition, the effect of stimulating the gastric motility was denoted as (+) and (++) respectively when 10 mg./kg. and 5 mg./kg. each of the sample was intervenously injected and the stimulated motility of the stomach continued longer than 20 minutes.

[6] = test system: catalepsy; details: in vivo; cited from earlier work
[7] = test system: emesis; details: in vivo; cited from earlier work
[8] = test system: gastric motility; details: in vivo; cited from earlier work
[9] = s.c., every 30 min till 240 min, symbol of Table II, read-out: Catalepsy ED50 (not measurable, symbol)
[10] = dog, s.c., 30 min before apomorphine 0.1 mg/kg s.c., Table I
[11] = dog, s.c., 30 min before apomorphine 0.1 mg/kg s.c.

Row | Compound | selectivity ratio [1] | LD50 at 168 h [1] [mg/kg] | ED50 [2] [mg/kg] | Activity efficiency (ED50 p.o/ED50 s.c) [2] | ED50 at 4 h [3, 9] [mg/kg] | ED50 [4, 10] [mg/kg] | Antiemetic activity ED50 (s.c) [4, 11] [mg/kg] | Effect of stimulating gastric motility [5] | ED50 at 4 h ([3]; s.c., every 30 min till 240 min, Table II, read-out: Catalepsy ED50) [mg/kg] | ED50 [4] [mg/kg] | Catalepsy, literature [6] | Antiemetic activity, literature [7] | Effect on gastric motility, literature [8] | ED50 at 4 h [3] [mg/kg]
1 | CCN1CCCC1CNC(=O)c1nc(Cl)c(N)nc1OC (centres unmarked) [N-(1-ethylpyrrolidin-2-ylmethyl)-5-amino-6-chloro-3-methoxypyrazine-2-carboxamide] | 45700 | 91.3 | 0.004 | 2.0 | > 100 | 0.002 |  |  |  |  |  |  |  | 
2 | CCN1CCCC1CNC(=O)c1nc(Cl)cnc1OC (centres unmarked) [N-(1-ethylpyrrolidin-2-ylmethyl)-5-chloro-2-methoxypyrazine-3-carboxamide] | 8500 | 170 |  |  |  | 0.02 |  |  |  |  |  |  |  | 
3 | CCNc1nc(OC)c(C(=O)NCC2CCCN2CC)nc1Cl (centres unmarked) [N-(1-ethylpyrrolidin-2-ylmethyl)-6-chloro-5-ethylamino-3-methoxypyrazine-2-carboxamide] | 23500 | 61.1 | 0.006 | 2.3 | > 100 | 0.0026 | 0.0026 |  |  |  |  |  |  | 
4 | CCNc1nc(OC)c(C(=O)NCC2CCCN2C)nc1Cl (centres unmarked) [N-(1-methylpyrrolidin-2-ylmethyl)-6-chloro-5-ethylamino-3-methoxypyrazine-2-carboxamide] | 15000 | 45 |  |  |  | 0.003 |  |  |  |  |  |  |  | 
5 | CCOc1nc(N)c(Cl)nc1C(=O)NCCN(CC)CC [N-(2-diethylaminoethyl)-5-amino-6-chloro-3-ethoxypyrazine-2-carboxamide] | 6010 | 72.1 |  |  |  | 0.012 |  |  |  |  |  |  |  | 
6 | CCN(CC)CCNC(=O)c1nc(Cl)c(N)nc1OC [N-(2-diethylaminoethyl)-5-amino-6-chloro-3-methoxypyrazine-2-carboxamide] | 12500 | 150 | 0.07 | 5.8 | > 100 | 0.012 | 0.012 |  |  |  |  |  |  | 
7 | CCN(CC)CCNC(=O)c1nc(Cl)c(Nc2ccccc2)nc1OC [N-(2-diethylaminoethyl)-5-anilino-6-chloro-3-methoxypyrazine-2-carboxamide] |  |  |  |  |  |  |  | + to ++ |  |  |  |  |  | 
8 | CCN(CC)CCNC(=O)c1nc(Cl)c(NC)nc1OC [N-(2-diethylaminoethyl)-6-chloro-3-methoxy-5-methylaminopyrazine-2-carboxamide] | 9100 | 91 |  |  |  | 0.01 |  |  |  |  |  |  |  | 
9 | CCNc1nc(OC)c(C(=O)NCCN(CC)CC)nc1Cl [N-(2-diethylaminoethyl)-6-chloro-5-ethylamino-3-methoxypyrazine-2-carboxamide] | 4550 | 91 | 0.065 | 3.3 | > 100 | 0.02 | 0.02 | + to ++ |  |  |  |  |  | 
10 | CN(C)CCCN1c2ccccc2Sc2ccc(Cl)cc21 [chlorpromazine, reference compound] | 290 | 71.4 | 2 | 8.0 |  |  | 0.25 |  | 7 | 0.25 |  |  |  | 
11 | CCN(CC)CCNC(=O)c1cc(Cl)c(N)cc1OC [metoclopramide, N-(diethylaminoethyl)-4-amino-5-chloro-2-methoxybenzamide, reference compound] |  | 61 | 0.13 |  |  | 0.03 | 0.03 |  |  |  | produces catalepsy as a side effect | stronger antiemetic activity than chlorpromazine | effect of stimulating gastric motility | 45

From patent US4041032A, “Pyrazine derivatives” (priority 1974, dated 1977)
